Starred links: 1 amine or outer side, 2 acyl side, 3 side chain; linkers in the order of their positions; H or OH if unused. Positions of bridges follow the written chain, without caps; N, C: chain ends. Non-standard residues stand in square brackets, D forms with d. Residues, ends and D or L forms follow the SMILES beside them. *: point of attachment. 5FAM = O=C1OC2(c3ccc(O)cc3Oc3cc(O)ccc32)c2ccc(C(=O)*)cc21; Trimesoyl = O=C(c1cc(C(=O)[*:2])cc(C(=O)[*:3])c1)[*:1]; Phe(4-Cl) = N[C@@H](Cc1ccc(Cl)cc1)C(=O)O; Phe(4-F) = N[C@@H](Cc1ccc(F)cc1)C(=O)O; d2Nal = N[C@H](Cc1ccc2ccccc2c1)C(=O)O; βAsp = O=C(O)[C@H](CC(=O)[*:2])N[*:1]; Phg = N[C@H](C(=O)O)c1ccccc1; Dap = NC[C@H](N)C(=O)O; βAla = NCCC(=O)O
Assays:
[1] = tested on: E. chaffeensis; experiment: E. chaffeensis infection of THP-1 cells, qPCR of 16S rRNA gene normalized to human actin; type: cell-based, Ehrlichia chaffeensis; settings: 10 μM, 2 days, vs DMSO control
Method: Therefore, we investigated whether these Etf-1-binding peptides can prevent the proliferation of E. chaffeensis inside host cells. THP-1 cells were infected with E. chaffeensis, then treated with the peptides at 30 min post infection (pi) for 2 days. Intracellular infection and proliferation of E. chaffeensis inside host THP-1 cells were assessed using quantitative PCR (qPCR) analysis based on E. chaffeensis 16S rRNA gene normalized by human actin (ACT) gene.
Fig. 5. Effects of Etf-1-binding peptides on E. chaffeensis infection of THP-1 cells. Ehrlichia chaffeensis-infected THP-1 cells at […] were incubated with 10 μM of Etf-1-binding macrocyclic peptide or DMSO control for 2 days.
No antibiotic was used throughout the study.
DNA was extracted from each sample using Qiagen blood mini kit according to the manufacturer's instructions (Qiagen, Valencia, CA, USA), and qPCR analysis was performed in an MX3000P qPCR instrument (Stratagene, San Diego, CA, USA) using SYBR Green Real-Time PCR Master Mix (Thermo Fisher Scientific) according to the manufacturer's instructions. Five-fold serial dilutions of the control group were used to generate a standard curve to calculate the relative copy numbers of E. chaffeensis 16S rRNA normalized against human actin genes using the MX3000P software from Stratagene as described previously ([18], [44]).

[2] = tested on: E. chaffeensis; experiment: morphological examination of E. chaffeensis infection of THP-1 cells by Diff-Quik staining; settings: for E. chaffeensis infection (numbers and sizes of morulae): THP-1 cells, Fig. S4 (with Figs. 5, S3)
Method: Ehrlichia chaffeensis Arkansas strain ([43]) was cultured in THP-1 cells (ATCC, Manassas, VA, USA) in RPMI 1640 medium (Corning, Manassas, VA, USA) supplemented with 8% FBS (Atlanta Biologicals, Flowery Branch, GA, USA) and 4 mM L-glutamine (at 37°C under 5% CO2 in a humidified atmosphere. THP-1 cells were seeded at 1 × 10^5 cells/well (in 1.5-mL RPMI 1640 culture medium with 8% FBS, 4 mM L-Gln) in a 12-well plate, then infected with host cell-free E. chaffeensis at an MOI (multiplicity of infection, or numbers of bacteria per cell) of ∼30. Cells were cultured in a humidified incubator with 5% CO2 and 95% air. No antibiotic was used throughout the study. At 0.5 h post infection (pi), cells were incubated with 1–10 μM of peptides or with an equal volume of DMSO (solvent control, 2 μL per mL medium). At 2 days pi, cells were washed with 1 mL of PBS, and two drops of cells were cytospun onto glass slides by a Shandon Cytospin 4 cytocentrifuge (Thermo Fisher Scientific), then fixed and stained with HEMA 3 staining solutions (Thermo Fisher Scientific). Ehrlichia infection was observed and images were captured by a SPOT RT digital camera (Diagnostic Instruments, Sterling Heights, MI, USA) coupled to a Nikon Eclipse E400 microscope (Nikon, Melville, NY, USA).

[3] = LDH release assay (plasma membrane damage); type: cell-based; settings: Fig. S2
Method: LDH release assay (Promega) was performed to assess the level of plasma membrane damage in a cell population by these compounds. […] Control wells contained 10 μL of lysis buffer, cell-free complete growth media, or positive LDH control. Following incubation at 37°C and 5% CO2 for 45 to 75 min, the culture was centrifuged and 50 μL of the growth medium was withdrawn from each well, transferred to a clear 96-well plate, mixed with 50 μL of LDH substrate mixture, and incubated at RT for 30 min with gentle mixing. Finally, 50 μL of 1 N HCl was added to each well, and the absorbances at 490 and 680 nm were immediately measured on a Tecan Infinite M1000 plate reader. Relative membrane leakage was calculated and plotted using GraphPad Prism v8.0.

[4] = tested on: BECN1 binding to Etf-1; experiment: streptavidin magnetic beads pull-down of BECN1 with biotin-Etf-1, Western blot; type: biochemical; settings: 10 µM peptide; for BECN1/Etf-1 Ratio: band intensities, DMSO control set as 1, Fig. 8B
Method: Fig. 8.
Streptavidin magnetic beads (15 µL, Pierce, Rockford, IL, USA) were washed with 1 mL of Bind/Wash buffer (25 mM Tris, pH 7.4; 250 mM NaCl, 0.1% Tween 20), and incubated with 0.15 µg ([…] final concentration) of biotinylated full-length Etf-1 protein in bind/wash buffer at 4°C overnight with end-to-end rotation. Beads were washed three times with Bind/Wash buffer, then incubated with Etf-1-binding macrocyclic peptides (10 µM) or DMSO control in Bind/Wash buffer at room temperature for 2 h. […] Beads were washed three times, and proteins were eluted from the beads with 50 µL of 2× SDS-sample buffer. […] Reacting bands were visualized with enhanced chemiluminescence by incubating the membrane with LumiGLO chemiluminescent reagent (Thermo Fisher Scientific). Images were captured by Amersham Imager 680 (GE Healthcare) and densitometry analysis was performed using ImagQuaNT (GE Healthcare). In each specimen, band intensities were normalized against those of actin as the loading control, and the ratios of the treatment group to the control group were calculated with the value in the control groups arbitrarily set as 1.0.

[5] = biological target: Etf-1 (Ehrlichia chaffeensis, UniProt Q2GG12); experiment: biochemical; type: binding; settings: unlabeled competitor peptides vs FAM-B7-133-8
Method: Fig. 2. Determination of binding affinity of Etf-1-binding peptides by FP assay. […] FAM-labeled peptide (50 nM) was incubated with serially diluted Etf-1 (starting from 25–30 μM in PBS, pH 7.4, supplemented with 5 mM DTT and 0.01% Triton X-100) for 1 h at RT. FP values were measured on a Tecan Infinite M1000 Pro plate reader. Titration curves (n ≥ 3) were fitted using GraphPad Prism and analyzed with TraceDrawer to calculate dissociation constants (KD). […] Data were analyzed using GraphPad Prism and fitted to a four-parameter variable slope equation to determine IC50 values.
Serial dilutions of competitor peptide (0-20 μM) were prepared from DMSO stock solutions into PBS containing 0.01% Triton-X100 and 2 mM TCEP and added to aliquots of the equilibrated Etf-1/probe solution. After incubation for 1 h in the dark and with gentle mixing, 20 μL of each sample was transferred into 384-well black-on-black microplates and FP was measured using a TECAN Infinite M1000 plate reader. Data were analyzed using GraphPad PRISM ver. 8.0 and fit to a four-parameter variable slope equation to determine IC50 values. IC50 values reported are the mean ± SD of n = 2–4 independent experiments.

[6] = tested on: THP-1 cells; experiment: CellTiter-Glo luminescent cell viability assay; settings: 2-day treatment; for cell viability: 20 μM
From the text: THP-1 (human promyelocytic leukemia) cells are widely used as E. chaffeensis infection studies of human monocytes in vitro, since initial characterization of infection ([31]).
Fig. 4. Cytotoxicity and proteolytic stability of Etf-1-binding peptides. (A) Effect of Etf-1-binding peptides on the viability of THP-1 cells as determined by CellTiter-Glo luminescent assay. Relative luminescence was plotted as function of the peptide concentration, with the cell viability of DMSO control group set as 100%. (B) Plot of the amount of intact peptide remaining as a function of the incubation time in 25% human serum. All values are normalized to that of peptide at time 0 (100%).
Cytotoxicity of Etf-1-binding peptides was examined by CellTiter-Glo luminescent cell viability assay (Promega, Madison, WI, USA). THP-1 cells were seeded in a transparent 96-well plate at a density of 5 × 10^3 cells/well (100 μL in each well) in RPMI-1640 containing 10% FBS and 1% antibiotics and cultured overnight. Etf-1-binding peptides were serially diluted in DPBS from a DMSO stock and added to the cells with the final concentration of 0–25 μM and a constant final concentration of 0.5% DMSO (v/v). After incubation at 37°C with 5% CO2 for 46 h, the plate was removed and pre-equilibrated to RT before the addition of 100 μL of the CellTiter-Glo 2.0 reagent to each well. The plate was incubated for 15 min on a rotary shaker in the dark, and the luminescence was detected (1-s integration time) on a Tecan Infinite M1000 Pro microplate reader. Relative luminescence was plotted as function of the peptide concentration, with the cell viability of DMSO control group set as 100%.

Sequence of Etf-1 (Q2GG12 entry or part of it): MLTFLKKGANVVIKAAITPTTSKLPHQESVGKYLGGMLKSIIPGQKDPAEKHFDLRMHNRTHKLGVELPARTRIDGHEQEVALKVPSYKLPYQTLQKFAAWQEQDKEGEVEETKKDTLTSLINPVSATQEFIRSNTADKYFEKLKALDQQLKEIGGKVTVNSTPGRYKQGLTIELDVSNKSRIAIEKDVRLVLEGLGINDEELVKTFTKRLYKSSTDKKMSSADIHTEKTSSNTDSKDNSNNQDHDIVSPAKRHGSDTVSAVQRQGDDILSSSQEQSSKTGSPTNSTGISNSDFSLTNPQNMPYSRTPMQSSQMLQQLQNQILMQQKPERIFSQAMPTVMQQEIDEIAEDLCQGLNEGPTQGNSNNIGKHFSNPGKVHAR

| SMILES | inhibition of E. chaffeensis infection [1] | E. chaffeensis infection (numbers and sizes of morulae) [2] | cytotoxicity (cell lysis in treated groups) ([2]; THP-1 host cells) | release of lactate dehydrogenase (LDH) [3] | disruption of BECN1 binding to Etf-1 ([4]; compared to DMSO control) | BECN1/Etf-1 Ratio [4] | competition for Etf-1 binding [5] | cell viability [6] | cytotoxicity ([6]; up to 10 μM) |
| --- | --- | --- | --- | --- | --- | --- | --- | --- | --- |
| CC(C)C[C@H]1NC(=O)[C@H](C)NC(=O)[C@H](CC(=O)O)NC(=O)[C@@H](Cc2ccc3ccccc3c2)NC(=O)[C@H]2CCCN2C(=O)[C@H](Cc2c[nH]cn2)NC(=O)[C@H](Cc2ccc(O)cc2)NC(=O)c2cc3cc(c2)C(=O)NC[C@H](NC1=O)C(=O)N[C@@H](Cc1ccc(Cl)cc1)C(=O)N[C@H](Cc1ccc2ccccc2c1)C(=O)N[C@H](CCCNC(=N)N)C(=O)N[C@@H](CCCNC(=N)N)C(=O)N[C@H](CCCNC(=N)N)C(=O)N[C@@H](CCCNC(=N)N)C(=O)N[C@H](C(N)=O)CNC3=O [Peptide B7-131-5, TMA-Tyr-His-pro-nal-Asp-Ala-leu-Dap-4-ClPhe-nal-arg-Arg-arg-Arg-Dap] (YH[dP][d2Nal]DA[dL][Dap][Phe(4-Cl)][d2Nal][dR]R[dR]R[Dap]-NH2; linker N-8-15 via Trimesoyl) | significantly inhibited | significantly inhibited | certain degrees of cytotoxicity | significant release of lactate dehydrogenase | disrupted BECN1 binding to Etf-1 | 0.23 | Competition for Etf-1 binding was observed | greater loss of cell viability |  |
| CC(C)C[C@H]1NC(=O)C[C@@H](C(=O)O)NC(=O)[C@@H](Cc2ccc(O)cc2)NC(=O)[C@H](c2ccccc2)NC(=O)[C@H](CC(=O)O)NC(=O)[C@H](Cc2ccc(F)cc2)NC(=O)[C@H](Cc2ccc(O)cc2)NC(=O)c2cc3cc(c2)C(=O)NC[C@H](NC1=O)C(=O)N[C@@H](Cc1ccc(Cl)cc1)C(=O)N[C@H](Cc1ccc2ccccc2c1)C(=O)N[C@H](CCCNC(=N)N)C(=O)N[C@@H](CCCNC(=N)N)C(=O)N[C@H](CCCNC(=N)N)C(=O)N[C@@H](CCCNC(=N)N)C(=O)N[C@H](C(=O)NCCC(=O)NCCC(=O)N[C@@H](CCCCNC(=O)c1ccc2c(c1)C(=O)OC21c2ccc(O)cc2Oc2cc(O)ccc21)C(N)=O)CNC3=O [Peptide B7-131-4, TMA-Tyr-Fpa-Asp-Phg-tyr-isoAsp-leu-Dap-4-ClPhe-nal-arg-Arg-arg-Arg-Dap] (Y[Phe(4-F)]D[Phg][dY][βAsp][dL][Dap][Phe(4-Cl)][d2Nal][dR]R[dR]R[Dap][βAla][βAla]K(5FAM)-NH2; linker N-8-15 via Trimesoyl) |  | only slightly reduced |  |  |  | 0.91 | Competition for Etf-1 binding was observed | slightly reduced the cell viability | no cytotoxicity |
